Experimental data: PubChem BioAssay AID1919005 (Molecular Pharmacology Branch, DTP, NCI, 2023)
“And” between values parts separate entries of the source, which are not always exact repeats. Equal entries are not always repeated.

System: 855422-203-R-J1-PDC complex spheroid growth
Assay: Anticancer human tumor 855422-203-R-J1-PDC patient-derived bladder carcinoma cell line growth inhibition [AhR]
Settings: for viability, T/C: stronger effect = lower value
Text: Multicellular complex tumor spheroid response to aryl hydrocarbon receptor antagonists in combination with a variety of drugs and investigational agents in selected tumor cell lines
The current study was undertaken to assess response to aryl hydrocarbon receptor antagonists in combination with standard-of-care drugs and investigational agents in solid tumor complex spheroid models. Complex spheroids include a stromal component modeled by human endothelial cells (HUVEC) and fibroblasts modeled by human mesenchymal stem cells (MSCs). The concentration ranges selected for each drug and investigational agent were based upon clinically achievable concentrations if the clinical Cmax of the agent was known.
Compounds. The drugs and investigational agents: BAY 2416964 (NSC825713), GNF351 (NSC835774), CH-223191 (NSC835775), CPI-455 (NSC825282), aza-TdCyd (NSC777586), decitabine (NSC127716), belinostat (NSC758774), entinostat (NSC756642), pevonedistat (NSC761192), tazemetostat (NSC777109), talazoparib (NSC765396), olaparib (NSC753686), selinexor (NSC780203), nedisertib (M3814, NSC802822), bortezomib (NSC756655), venetoclax (NSC766270), doxorubicin (NSC123127), elimusertib (BAY189344, NSC800525), ceralasertib (AZD6738, NSC777638), TAK-243 (NSC785004), alisertib (NSC759677), etoposide (NSC141540), topotecan (NSC609699), eribulin (NSC707389), gemcitabine (NSC613327), carboplatin (NSC241240), cisplatin (NSC119875), and SN-38 (NSC673596) were obtained from the National Cancer Institute (NCI) Developmental Therapeutics Program Chemical Repository (32). The FDA-approved anticancer drug set is available from the Developmental Therapeutics Program at https://dtp.cancer.gov/organization/dscb/obtaining/available plates.htm. […] The stock solutions were prepared in dimethyl sulfoxide (DMSO, Sigma-Aldrich, St. Louis, MO, cat. D2650), except for the platinum compounds which were prepared in saline (Quality Biological, Gaithersburg, MD, cat. 114-055-101), at 800-fold the tested concentration and stored at -70 degrees C prior to their use. All drugs and investigational agents were tested over a range starting from a high concentration at or near the clinical Cmax and decreasing in half-log increments. If the clinical Cmax for an agent had not been determined, the highest concentration tested was 10 microM (Table 1).
Cell Culture. All cells were maintained in an incubator at 37 degrees C and 5% CO2 with 95% humidity. The PDC lines were cultured according to standard operating procedures established by the NCI PDMR (https://pdmr.cancer.gov). Briefly, all PDCs were thawed and cultured in Matrigel-coated flasks prepared with a working solution of 1X Ham's F-12 nutrient mix, without supplementation (Invitrogen, Waltham, MA, cat. 11765054), 100 U/mL penicillin-streptomycin (Invitrogen, cat. 15140122), and 2.5% Matrigel (Corning Inc., Corning, NY, cat. 354248) for the first three passages. All PDCs were cultured in complete DMEM/F-12 media containing advanced DMEM/F-12 (Invitrogen, cat. 12634028), 4.9% defined fetal bovine serum, heat inactivated (HyClone Laboratories Inc., Logan, UT, cat. SH30070.03HI), 389 ng/mL hydrocortisone (Sigma-Aldrich, cat. H4001), 9.7 ng/mL human EGF recombinant protein (Invitrogen, cat. PHG0313), 23.4 microg/mL adenine (Sigma-Aldrich, cat. A2786), 97.3 U/mL penicillin-streptomycin (Invitrogen, cat. 15140122), 1.9 mM L-glutamine (Invitrogen, cat. 25030081), and 9.7 microM Y-27632 dihydrochloride (Tocris Bioscience, Bristol, United Kingdom, cat. 1254). The PDCs were cultured in complete DMEM/F12 media without 10 microM Y-27632 dihydrochloride for at least two passages prior to the screen. The established cell lines NCI-H1341 and […] were cultured in DMEM/F-12, HEPES (Invitrogen, cat. 11330032), 5% defined fetal bovine serum (HyClone Laboratories Inc., cat. SH30070.03), ITS premix universal culture supplement [insulin (5 microg/mL), transferrin (5 microg/mL), and selenious acid (5 ng/mL)] […]

[1] = curve of first compound, second compound 0.1 µM
[2] = curve of first compound, second compound 0.316 µM
[3] = curve of first compound, second compound 1 µM
[4] = curve of first compound, second compound 3.16 µM
[5] = curve of first compound, second compound 10 µM
[6] = second compound 0.1 µM, first compound 0.0316 µM
[7] = second compound 0.1 µM, first compound 0.1 µM
[8] = second compound 0.1 µM, first compound 0.316 µM
[9] = second compound 0.1 µM, first compound 1 µM
[10] = second compound 0.1 µM, first compound 3.16 µM
[11] = second compound 0.1 µM, first compound 10 µM
[12] = second compound 0.316 µM, first compound 0.0316 µM
[13] = second compound 0.316 µM, first compound 0.1 µM
[14] = second compound 0.316 µM, first compound 0.316 µM
[15] = second compound 0.316 µM, first compound 1 µM
[16] = second compound 0.316 µM, first compound 3.16 µM
[17] = second compound 0.316 µM, first compound 10 µM
[18] = second compound 1 µM, first compound 0.0316 µM
[19] = second compound 1 µM, first compound 0.1 µM
[20] = second compound 1 µM, first compound 0.316 µM
[21] = second compound 1 µM, first compound 1 µM
[22] = second compound 1 µM, first compound 3.16 µM
[23] = second compound 1 µM, first compound 10 µM
[24] = second compound 3.16 µM, first compound 0.0316 µM
[25] = second compound 3.16 µM, first compound 0.1 µM
[26] = second compound 3.16 µM, first compound 0.316 µM
[27] = second compound 3.16 µM, first compound 1 µM
[28] = second compound 3.16 µM, first compound 3.16 µM
[29] = second compound 3.16 µM, first compound 10 µM
[30] = second compound 10 µM, first compound 0.0316 µM
[31] = second compound 10 µM, first compound 0.1 µM
[32] = second compound 10 µM, first compound 0.316 µM
[33] = second compound 10 µM, first compound 1 µM
[34] = second compound 10 µM, first compound 3.16 µM
[35] = second compound 10 µM, first compound 10 µM
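Also: spheroids exposed to agents for seven days before readout.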
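For viability, T/C in this document: percent of DMSO vehicle control luminescence viability.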

For `Nc1ncn(C2CC(O)C(CO)S2)c(=O)n1` (stereo not drawn) + Cc1ccccc1N=Nc1ccc(NC(=O)c2ccnn2C)c(C)c1, the IC50 [1] was over 300 nM, the IC50 [2] was over 300 nM and the IC50 [3] was over 300 nM. For the same molecule, the IC50 [4] was over 300 nM, the IC50 [5] was over 300 nM and the viability, T/C (second compound 0.1 µM, first compound 0.000949 µM) was 99.8%. For the same molecule, the viability, T/C (second compound 0.1 µM, first compound 0.003 µM) was 94.9%, the viability, T/C (second compound 0.1 µM, first compound 0.00949 µM) was 98% and the viability, T/C (second compound 0.1 µM, first compound 0.03 µM) was 95.9%. The viability, T/C (second compound 0.1 µM, first compound 0.0949 µM) was 97%, the viability, T/C (second compound 0.1 µM, first compound 0.3 µM) was 93.8% and the viability, T/C (second compound 0.316 µM, first compound 0.000949 µM) was 104%. For the same molecule, the viability, T/C (second compound 0.316 µM, first compound 0.003 µM) was 97.7%, the viability, T/C (second compound 0.316 µM, first compound 0.00949 µM) was 97.7% and the viability, T/C (second compound 0.316 µM, first compound 0.03 µM) was 99.8%. It also gave a viability, T/C (second compound 0.316 µM, first compound 0.0949 µM) of 95.4%, a viability, T/C (second compound 0.316 µM, first compound 0.3 µM) of 101% and a viability, T/C (second compound 1 µM, first compound 0.000949 µM) of 100%. The viability, T/C (second compound 1 µM, first compound 0.003 µM) was 100%, the viability, T/C (second compound 1 µM, first compound 0.00949 µM) was 92.5% and the viability, T/C (second compound 1 µM, first compound 0.03 µM) was 98.2%. It also gave a viability, T/C (second compound 1 µM, first compound 0.0949 µM) of 98%, a viability, T/C (second compound 1 µM, first compound 0.3 µM) of 92.6% and a viability, T/C (second compound 3.16 µM, first compound 0.000949 µM) of 98.9%. The viability, T/C (second compound 3.16 µM, first compound 0.003 µM) was 87.2%, the viability, T/C (second compound 3.16 µM, first compound 0.00949 µM) was 90.2% and the viability, T/C (second compound 3.16 µM, first compound 0.03 µM) was 86.3%. It also gave a viability, T/C (second compound 3.16 µM, first compound 0.0949 µM) of 93.7%, a viability, T/C (second compound 3.16 µM, first compound 0.3 µM) of 84.5% and a viability, T/C (second compound 10 µM, first compound 0.000949 µM) of 87.6%. It also gave a viability, T/C (second compound 10 µM, first compound 0.003 µM) of 80.8%, a viability, T/C (second compound 10 µM, first compound 0.00949 µM) of 82% and a viability, T/C (second compound 10 µM, first compound 0.03 µM) of 90.3%. For the same molecule, the viability, T/C (second compound 10 µM, first compound 0.0949 µM) was 91.4% and the viability, T/C (second compound 10 µM, first compound 0.3 µM) was 78%.
`CC1COCCN1c1cc(C2(S(C)(=N)=O)CC2)nc(-c2ccnc3[nH]ccc23)n1` (stereo not drawn) was tested, and the viability, T/C (compound 0.0316 µM) was 93.4% and 101% and 98.8%, the viability, T/C (compound 0.1 µM) was 106% and 102% and 113% and the viability, T/C (compound 0.316 µM) was 99.9% and 101% and 88.2%. For the same molecule, the viability, T/C (compound 1 µM) was 108% and 106% and 115%, the viability, T/C (compound 3.16 µM) was 125% and 124% and 123% and the viability, T/C (compound 10 µM) was 24.9% and 56.9% and 59.1%. The IC50 (curve of compound) was 7020 nM and > 10000 nM.
With `NS(=O)(=O)OCC1CC(n2ccc3c(NC4CCc5ccccc54)ncnc32)CC1O` (stereo not drawn) + Cc1cncc(-c2nc(NCCc3c[nH]c4ccccc34)c3ncn(C(C)C)c3n2)c1 the IC50 [1] was 860 nM, the IC50 [2] was 647 nM and the IC50 [3] was 499 nM. It also gave an IC50 [4] of 216 nM, an IC50 [5] of under 31.6 nM and a viability, T/C [6] of 114%. It also gave a viability, T/C [7] of 119%, a viability, T/C [8] of 78.2% and a viability, T/C [9] of 50.4%. It also gave a viability, T/C [10] of 12.8%, a viability, T/C [11] of 10.9% and a viability, T/C [12] of 96.5%. For the same molecule, the viability, T/C [13] was 113%, the viability, T/C [14] was 52.1% and the viability, T/C [15] was 50.9%. For the same molecule, the viability, T/C [16] was 10.8%, the viability, T/C [17] was 9.91% and the viability, T/C [18] was 98.3%. The viability, T/C [19] was 106%, the viability, T/C [20] was 50.7% and the viability, T/C [21] was 40.3%. It also gave a viability, T/C [22] of 11.7%, a viability, T/C [23] of 9.3% and a viability, T/C [24] of 80.2%. For the same molecule, the viability, T/C [25] was 75.9%, the viability, T/C [26] was 37.1% and the viability, T/C [27] was 12.5%. The viability, T/C [28] was 8.33%, the viability, T/C [29] was 8.5% and the viability, T/C [30] was 9.89%. The viability, T/C [31] was 4.7%, the viability, T/C [32] was 3.03% and the viability, T/C [33] was 0.63%. It also gave a viability, T/C [34] of 1.67% and a viability, T/C [35] of 1.45%.
Molecule `CC1COCCN1c1cc(C2(S(C)(=N)=O)CC2)nc(-c2ccnc3[nH]ccc23)n1` (stereo not drawn) + Cc1ccccc1N=Nc1ccc(NC(=O)c2ccnn2C)c(C)c1 has an IC50 [1] of over 10000 nM, an IC50 [2] of over 10000 nM and an IC50 [3] of over 10000 nM. It also gave an IC50 [4] of over 10000 nM, an IC50 [5] of 7860 nM and a viability, T/C [6] of 95.5%. The viability, T/C [7] was 95.4%, the viability, T/C [8] was 97.4% and the viability, T/C [9] was 99.4%. It also gave a viability, T/C [10] of 110%, a viability, T/C [11] of 54.9% and a viability, T/C [12] of 105%. The viability, T/C [13] was 99.2%, the viability, T/C [14] was 104% and the viability, T/C [15] was 101%. It also gave a viability, T/C [16] of 121%, a viability, T/C [17] of 55.4% and a viability, T/C [18] of 102%. It also gave a viability, T/C [19] of 98.4%, a viability, T/C [20] of 95% and a viability, T/C [21] of 106%. For the same molecule, the viability, T/C [22] was 125%, the viability, T/C [23] was 60% and the viability, T/C [24] was 91%. It also gave a viability, T/C [25] of 91.4%, a viability, T/C [26] of 92.9% and a viability, T/C [27] of 102%. The viability, T/C [28] was 109%, the viability, T/C [29] was 50.8% and the viability, T/C [30] was 83.5%. It also gave a viability, T/C [31] of 79%, a viability, T/C [32] of 83.6% and a viability, T/C [33] of 93.3%. The viability, T/C [34] was 82% and the viability, T/C [35] was 41.4%.
`CC(C)CC(NC(=O)C(Cc1ccccc1)NC(=O)c1cnccn1)B(O)O` (stereo not drawn) was tested, and the viability, T/C (compound 0.000949 µM) was 110% and 101% and 118%, the viability, T/C (compound 0.00949 µM) was 0.21% and 0.27% and 0.11% and the viability, T/C (compound 0.03 µM) was 0.16% and 0.14% and 0.42%. The viability, T/C (compound 0.0949 µM) was 0.15% and 0.14% and 0.12%, the viability, T/C (compound 0.3 µM) was 0.19% (2×) and 0.21% and the IC50 (curve of compound) was 2.79 nM and 5.76 nM and 1.85 nM.
